The target in the assay is T1, serotonin transporter (Rattus norvegicus, UniProt P31652).
T1 construct: frontal cortical membranes prepared from male S.D. rats; from tissue; host or cells: rat frontal cortex membranes (male Sprague-Dawley rats)
The experiment in a line: 3H-Paroxetine binding to assess affinity for the serotonin transporter. As for the experimental part: The affinity of drugs for the serotonin transporter was determined by assessing the ability of agents to displace specifically bound 3H-paroxetine binding from rat cortical membranes. […] Nonspecific binding was determined using fluoxetine.
^3H-Paroxetine Binding to Assess Affinity of Drugs for the Serotonin Transporter:
Briefly, frontal cortical membranes prepared from male S.D. rats were incubated with ^3H-paroxetine (0.1 nM) for 60 min at 25°C. All tubes also contained either vehicle, test compound (one to eight concentrations), or a saturating concentration of fluoxetine (10 µM) to define […]. All reactions are terminated by the addition of ice cold Tris buffer followed by rapid filtration using a Tom Tech filtration device to separate bound from free ^3H-paroxetine.

Where two headings read alike, the source gives them in different places.

T1 sequence (P31652 whole entry): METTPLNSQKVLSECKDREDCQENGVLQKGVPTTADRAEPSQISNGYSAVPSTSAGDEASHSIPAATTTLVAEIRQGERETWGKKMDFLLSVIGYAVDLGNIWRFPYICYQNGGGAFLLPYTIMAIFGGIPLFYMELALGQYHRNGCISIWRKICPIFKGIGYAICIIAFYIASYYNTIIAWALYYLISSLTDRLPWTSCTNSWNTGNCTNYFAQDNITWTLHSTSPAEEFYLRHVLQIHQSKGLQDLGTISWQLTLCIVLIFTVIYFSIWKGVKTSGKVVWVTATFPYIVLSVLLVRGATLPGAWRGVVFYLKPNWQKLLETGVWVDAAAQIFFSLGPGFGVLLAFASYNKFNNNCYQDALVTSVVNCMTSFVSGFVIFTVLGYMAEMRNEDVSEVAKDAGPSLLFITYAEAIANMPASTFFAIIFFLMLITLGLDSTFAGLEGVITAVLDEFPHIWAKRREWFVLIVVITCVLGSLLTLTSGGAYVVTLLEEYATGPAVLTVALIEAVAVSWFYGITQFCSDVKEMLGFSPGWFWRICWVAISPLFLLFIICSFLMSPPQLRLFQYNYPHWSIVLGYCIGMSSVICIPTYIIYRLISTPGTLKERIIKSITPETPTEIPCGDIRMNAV

`Cc1nc2ccccc2n1CC(O)CN1CC=C(c2c[nH]c3ccccc23)CC1` (stereo not shown) [Example 13, 1-[4-(1H-Indol-3-yl)-3,6-dihydro-2H-pyridin-1-yl]-3-(2-methyl-benzoimidazol-1-yl)-propan-2-ol] registered a Ki of 0.4 nM.

`OC(CN1CC=C(c2c[nH]c3ccccc23)CC1)Cn1ccc2ccccc21` (stereo not shown) [Example 12, 1-Indol-1-yl-3-[4-(1H-indol-3-yl)-3,6-dihydro-2H-pyridin-1-yl]-propan-2-ol]: the inhibitory constant (Ki) (read-out: Inhibition of [3H]-Paroxetine binding Ki, compounds of formula (1), rat frontal cortical membranes, 3H-paroxetine 0.1 nM, 60 min at 25°C, nonspecific binding with fluoxetine 10 µM) came out at 1.7 nM.

Turning to `COc1cccc2c1ccn2CC(O)CN1CC=C(c2c[nH]c3ccccc23)CC1` (stereo not shown) [Example 11, 1-[4-(1H-Indol-3-yl)-3,6-dihydro-2H-pyridin-1-yl]-3-(4-methoxy-indol-1-yl)-propan-2-ol], the Ki came to 0.04 nM.

Compound `O[C@@H](CN1CC=C(c2c[nH]c3ccccc23)CC1)Cn1ccc2c(F)cccc21` [Example 15, (2S)-1-(4-Fluoro-indol-1-yl)-3-[4-(1H-indol-3-yl)-3,6-dihydro-2H-pyridin-1-yl]-propan-2-ol] yielded a Ki of 0.3 nM.

Take `OC(CN1CC=C(c2c[nH]c3ccccc23)CC1)Cn1ccc2c(F)cccc21` (stereo not shown) [Example 10, 1-(4-Fluoro-indol-1-yl)-3-[4-(1H-indol-3-yl)-3,6-dihydro-2H-pyridin-1-yl]-propan-2-ol]: the affinity corresponds to a Ki of 0.01 nM.

As to `COc1cccc2c1ccn2C[C@@H](O)CN1CC=C(c2c[nH]c3ccccc23)CC1` [Example 14, (2S)-1-[4-(1H-Indol-3-yl)-3,6-dihydro-2H-pyridin-1-yl]-3-(4-methoxy-indol-1-yl)-propan-2-ol], the affinity, expressed as Ki, was 0.03 nM.

The compound `OC(CN1CC=C(c2c[nH]c3ccccc23)CC1)Cn1ccc2cc(F)ccc21` (stereo not shown) [Example 8, 1-(5-Fluoro-indol-1-yl)-3-[4-(1H-indol-3-yl)-3,6-dihydro-2H-pyridin-1-yl]-propan-2-ol] came in with a Ki of 1.4 nM.

For the origin of these results see EP1075471B1, “INDOLYL DERIVATIVES AS SEROTONERGIC AGENTS” (Wyeth, priority 1998, dated 1999).
